{"source": "patent US20150197500A1", "about": "“NO-RELEASING GUANIDINE-CHROMENE CONJUGATES” (Euclises Pharmaceuticals, Inc., priority 2014, published 2015)", "system": "PGE2 production", "test": "Rat air-pouch model for acute inflammation (PGE2 in exudate by ELISA)", "format": "in vivo, Sprague-Dawley rats", "settings": "oral gavage 0.01 mmol/kg 2 h before carrageenan, exudate 4 h after carrageenan, 6 rats/group", "description": "A study of chromene release is assessed by measurement of PGE2 levels, which are indicative of inflammatory response.\nAnimals: Sprague-Dawley rats (Charles River Laboratories, R #3234, PO #738990, male, 160-180 g) are received, individually examined, and housed in cages of five rats each. The rats are ear notched for identification purposes.\nCompounds and dosing solutions: The vehicle is prepared by dissolving 40 g (2-hydroxypropyl)-[…] making a 25% solution which is filter sterilized (0.2 μm, Nalgene, Cat. 151-4020, lot 1095610). […]\nDay 6—Compound administration and carrageenan insult: At commencement of the study, each rat is weighed and sorted into treatment groups of 6 rats/group based upon average weight. […] The pouch is gently massaged, the exudate immediately removed, and exudate volume recorded. […]\nData analysis: The exudate samples are thawed to room temperature and assayed by ELISA for PGE2 (R&D Systems, Cat. KGE004B, lot 307711). Statistical significance of treatments on mean exudate volumes are determined by comparison of means for treatment groups with vehicle group. Mean cytokine concentrations and standard deviations are determined for each group. […] Statistical significance (p-value) is calculated vs control groups by Student's t-Test. […]", "note": "Counter-ions that a name gives are not always drawn.", "data": [{"smiles": "CC(=O)NC(CCCNC(=N)N)C(=O)OCOC(=O)C1=Cc2cc(Cl)c(C(C)(C)C)cc2OC1C(F)(F)F", "note": "(stereo not shown) [Example 33a, trifluoroacetate salt]", "values": [{"measurement": "% Inhibition of PGE2 production relative to control (+/−S.D.)", "result": "75.7 (+/−11.9) %"}]}]}
